Data published in publication PMC12339378 (Molecular Psychiatry, 2025).

What was measured:
[1] = tested on: HCN channel Ih currents in VTA DA neurons; assay type: cell-based, mice
[2] = tested on: VTA DA neurons; assay type: cell-based, mice; conditions: 750 µM local application for 3 min; cell-attached; average
[3] = cited from earlier work

Compound	percent inhibition of Ih currents in VTA DA neurons [1]	percent inhibition of firing rate in VTA DA neurons [2] [%]	ability to cross the blood-brain barrier (BBB) [3]
COc1cc2c(cc1OC)CC(=O)N(CCCN(C)C[C@H]1Cc3cc(OC)c(OC)cc31)CC2 [Ivabradine]	significant inhibition of the Ih current	61.1	limited abilities to cross the blood-brain barrier
COc1ccc(CCN(C)CCCN2CCc3cc(OC)c(OC)cc3CC2=O)cc1OC [Zatebradine]	significant inhibition of the Ih current	59.7	–
COc1cc2c(cc1OC)CC(=O)N(C[C@H]1CCCN(CCOc3ccccc3)C1)CC2 [compound 3]	less efficacious than Cilobradine	–	–
COc1cc2c(cc1OC)CC(=O)N(C[C@H]1CCCN(CCOc3ccccc3F)C1)CC2 [compound 4]	less efficacious than Cilobradine	–	–
COc1ccc(CCN2CCO[C@H](CN3CCc4cc(OC)c(OC)cc4CC3=O)C2)cc1OC [compound 6]	less efficacious than Cilobradine	–	–
COc1ccc(C(F)(F)CN(C)CCCN2CCc3cc(OC)c(OC)cc3CC2=O)cc1OC [compound 8]	no efficacy	–	–
COc1cc2c(cc1OC)CC(=O)N(C[C@H]1CCCN(C(=O)OC(C)(C)C)C1)CC2 [compound 11]	less than half the efficacy of Cilobradine	–	–
